Laboratory results: patent US8961959B2, “Glucosylceramide synthase inhibitors and therapeutic methods using the same” (The Regents of the University of Michigan, priority 2011, dated 2015)
pIC50: −log10 of the molar value.

Key:
MDR1-MDCKII cells = experiment: GCS inhibition (GlcCer production) in MDCKII cells stably expressing human MDR1; assay type: cell-based, canine; conditions: for pIC50: Canis lupus familiaris, inhibition of GlcCer production in MDCKII cells stably expressing human MDR1, 24 h, read-out: MDR-MDCK IC50; for MDR/WT: ratio of MDR1-MDCKII IC50 divided by WT-MDCKII IC50
Description: (§1) Parental (WT-)MDCKII cells and MDCKII cells retrovirally transduced with human MDR-1 cDNA were obtained from the Netherlands Cancer Institute. Both cell lines were routinely maintained in medium consisting of Opti-MEM/F 12 (1:1), 5% FBS, 100 U/mL of penicillin, 100 μg/mL streptomycin and […] L-glutamine. MDCKII cells were newly thawed from frozen ampules every two months.
Stock solutions of water-insoluble glycosphingolipid inhibitors (100 mM) were prepared by dissolving each inhibitor into 100% ethanol as previously described (3). The inhibitor-ethanol solutions then were diluted 50× into 2 mM delipidated bovine serum albumin-phosphate buffered saline solution to make water-soluble glycosphingolipid inhibitor-bovine serum albumin complexes. The inhibitor-bovine serum album complexes were sterile-filtered and stored at −20° C. Prior to use, portions of the inhibitor-bovine serum albumin complexes were further diluted with Opti-F12 to make treatment solutions. Equal amounts of bovine serum albumin and ethanol were added into the control cultures. WT and MDR1-MDCKII cells (5×10^5) were seeded into 10-cm culture dishes containing 10 ml of Opti-F12 with 5% FBS. […]
(§2) Following inhibitor treatment, whole cellular lipids of wild type and MDR1-MDCKII cells were extracted as previously described in detail (10). Briefly, cells were washed with ice-cold phosphate buffered saline, fixed by methanol, and collected with rubber scraper. Chloroform was then added to yield a theoretical ratio of chloroform:methanol:water at 1:2:0.8 (v/v/v) to form a mono-phase. Cell debris and proteins were removed by centrifugation at 2200×g for 30 min. The supernatants were portioned by adding chloroform and 0.9% NaCl. The lower organic phases containing neutral glycosphingolipids lipids were washed with methanol and 0.9% NaCl, and subjected to base- and acid-hydrolysis (10). A portion of purified glycosphingolipids normalized to 100 nmol of total phospholipids was analyzed by high performance thin layer chromatography. The thin layer chromatography separations were processed twice. The plate pretreated with 1% sodium borate was first developed in a solvent system consisting of chloroform/methanol (98/2, v/v). After air drying, the plate was then developed in a solvent system containing chloroform/methanol/water (70/30/4, v/v/v). The levels of glucosylceramide were detected by charring with 8% cupric sulfate in 8% phosphoric acid, and quantified by densitometric scanning using ImageJ, NIH Image.

[1] = molecular target: T1, glucosylceramide synthase (GCS) (Canis lupus familiaris, UniProt A0A8I3MXG6); experiment: GCS activity, broken cell (MDCK cell homogenate) assay; assay type: biochemical, canine
T1 construct: Madin-Darby canine kidney (MDCK) cell homogenates (120 μg of protein) were incubated; endogenous in cells; host or cells: MDCK (Madin-Darby canine kidney) cell homogenate
T1 sequence (A0A8I3MXG6 1-394): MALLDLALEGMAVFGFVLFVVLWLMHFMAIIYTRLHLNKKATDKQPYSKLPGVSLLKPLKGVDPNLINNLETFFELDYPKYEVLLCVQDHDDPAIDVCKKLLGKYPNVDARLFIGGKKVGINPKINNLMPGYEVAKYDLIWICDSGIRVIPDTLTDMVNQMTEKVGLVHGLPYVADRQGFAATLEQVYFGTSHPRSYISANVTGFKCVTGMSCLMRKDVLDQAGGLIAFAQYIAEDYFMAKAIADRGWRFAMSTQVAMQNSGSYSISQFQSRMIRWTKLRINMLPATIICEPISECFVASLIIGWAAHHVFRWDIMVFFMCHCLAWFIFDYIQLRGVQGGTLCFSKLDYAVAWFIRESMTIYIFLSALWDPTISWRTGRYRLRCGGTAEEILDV
Description: Enzyme activity was measured as described previously (9). Madin-Darby canine kidney (MDCK) cell homogenates (120 μg of protein) were incubated with uridine diphosphate-[^3H]glucose (100,000 cpm) and liposomes consisting of 85 μg of octanoylsphingosine, 570 μg of dioleoylphosphatidylcholine, and 100 μg of sodium sulfatide in a 200 μL reaction mixture and kept for 1 h at 37° C.

WT-MDCKII cells = experiment: GCS inhibition (GlcCer production) in whole wild-type MDCKII cells; assay type: cell-based, canine; conditions: Canis lupus familiaris, MDCK-II; inhibition of GlcCer production in whole wild-type MDCKII cells, 24 h; read-out: WT-MDCK IC50
Description: as §1, with “months. Protein levels of MDR1 in MDR1-MDCKII cells were measured monthly, and MDR1-MDCKII cell passages were immediately terminated when a reduction of MDR1 levels was observed by Western blot using anti-human MDR1 monoclonal antibody (Abcam C219).” for “months.”
Stock solutions of water-insoluble glycosphingolipid inhibitors (100 mM) were prepared by dissolving each inhibitor into 100% ethanol as previously described (3). The inhibitor-ethanol solutions then were diluted 50× into 2 mM delipidated bovine serum albumin-phosphate buffered saline solution to make water-soluble glycosphingolipid inhibitor-bovine serum albumin complexes. The inhibitor-bovine serum album complexes were sterile-filtered and stored at −20° C. Prior to use, portions of the inhibitor-bovine serum albumin complexes were further diluted with Opti-F12 to make treatment solutions. Equal amounts of bovine serum albumin and ethanol were added into the control cultures. WT and MDR1-MDCKII cells (5×10^5) were seeded into 10-cm culture dishes containing 10 ml of Opti-F12 with 5% FBS. After 24 hours, the medium was replaced with fresh serum-free Opti-F12 medium, and cells were exposed to candidate GCS inhibitors at concentrations of 0, 1, 3, 10, 30, 100 and 300 nM for 24 hours.
as §2, with “Image. Image data was analyzed, and the IC50 of each inhibitor was calculated using GraphPad Prism (version 5.03).” for “Image.”

MDR1 = molecular target: T2, MDR1 (Homo sapiens, UniProt P08183); experiment: [3H]Vinblastine transport in MDR1-MDCKII cells; assay type: cell-based; conditions: 1-100 μM, 2 h, relative to vehicle
T2 construct: host or cells: MDCKII (canine kidney) cells retrovirally transduced with human MDR-1 cDNA
T2 sequence (P08183 whole entry): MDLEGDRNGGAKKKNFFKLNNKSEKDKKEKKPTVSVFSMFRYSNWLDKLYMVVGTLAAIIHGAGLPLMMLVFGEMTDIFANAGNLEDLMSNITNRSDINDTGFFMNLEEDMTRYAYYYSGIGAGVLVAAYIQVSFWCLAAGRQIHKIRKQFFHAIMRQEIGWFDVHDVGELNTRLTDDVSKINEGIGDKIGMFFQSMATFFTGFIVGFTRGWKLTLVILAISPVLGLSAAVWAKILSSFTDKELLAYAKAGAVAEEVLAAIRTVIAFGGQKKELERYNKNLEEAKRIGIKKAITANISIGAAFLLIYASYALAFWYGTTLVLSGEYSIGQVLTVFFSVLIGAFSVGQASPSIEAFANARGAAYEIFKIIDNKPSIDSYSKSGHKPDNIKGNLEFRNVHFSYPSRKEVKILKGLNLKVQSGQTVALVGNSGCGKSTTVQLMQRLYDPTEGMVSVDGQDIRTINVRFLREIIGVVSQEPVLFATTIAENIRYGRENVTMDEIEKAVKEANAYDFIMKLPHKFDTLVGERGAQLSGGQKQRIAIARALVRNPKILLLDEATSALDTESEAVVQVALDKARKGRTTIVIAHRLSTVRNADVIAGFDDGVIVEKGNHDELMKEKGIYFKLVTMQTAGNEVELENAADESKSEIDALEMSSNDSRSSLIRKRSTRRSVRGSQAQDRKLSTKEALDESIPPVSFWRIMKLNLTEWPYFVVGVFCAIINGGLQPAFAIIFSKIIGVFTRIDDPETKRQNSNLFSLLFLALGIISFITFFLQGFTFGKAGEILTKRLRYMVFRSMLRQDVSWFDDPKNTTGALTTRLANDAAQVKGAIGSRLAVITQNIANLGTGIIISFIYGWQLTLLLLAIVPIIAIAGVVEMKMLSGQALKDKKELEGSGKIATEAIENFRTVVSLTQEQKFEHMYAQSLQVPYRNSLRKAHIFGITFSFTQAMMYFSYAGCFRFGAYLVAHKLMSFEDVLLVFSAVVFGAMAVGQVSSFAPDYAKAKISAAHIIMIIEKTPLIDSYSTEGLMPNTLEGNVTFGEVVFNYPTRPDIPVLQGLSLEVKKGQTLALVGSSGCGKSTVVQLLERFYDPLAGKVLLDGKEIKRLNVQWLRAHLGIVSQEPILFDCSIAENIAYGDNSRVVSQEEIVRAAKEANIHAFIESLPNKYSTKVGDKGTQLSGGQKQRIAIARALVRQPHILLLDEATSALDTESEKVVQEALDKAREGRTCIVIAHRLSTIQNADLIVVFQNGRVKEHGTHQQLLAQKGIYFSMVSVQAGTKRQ
Description: MDR1- and WT-MDCKII cells were grown to confluence on Transwell filters (12 well plates) in DMEM+10% FBS. […] Uptake was measured over 2 hours at 37° C. At that time, uptake was stopped by washing each side of the membrane 3× with ice-cold PBS. Vinblastine uptake into the cells, after correction for any remaining adherent extracellular contamination, was calculated as described previously (11). To investigate the effect of experimental drugs on MDR-mediated transport, those compounds were added to the apical chamber (1-100 μM) during vinblastine uptake and the uptake results expressed as a % of that with vehicle alone.

[2] = cited from earlier work

SMILES | pIC50 [1] | [3H]vinblastine uptake into MDR1-MDCKII cells (MDR1) | pIC50 (MDR1-MDCKII cells) | MDR/WT (MDR1-MDCKII cells) | pIC50 (WT-MDCKII cells) | activity in the MDR1-MDCKII line (MDR1-MDCKII cells; in words) | effect on mouse body weight [2]
O=C(N[C@H](CN1CCCC1)[C@H](O)c1ccc2c(c1)OCCO2)OCc1ccccc1 [Compound 3b] | 6.84 | – | 7.33 | 6.5 | 8.14 | – | –
O=C(CCc1ccccc1)N[C@H](CN1CCCC1)[C@H](O)c1ccc2c(c1)OCCO2 [Compound 3c] | 6.87 | – | 7.06 | 3.7 | 7.63 | – | –
O=C(CCCc1ccccc1)N[C@H](CN1CCCC1)[C@H](O)c1ccc2c(c1)OCCO2 [Compound 3e] | 7.10 | – | 5.84 | 5.7 | 6.60 | – | –
O=C(/C=C/c1ccccc1)N[C@H](CN1CCCC1)[C@H](O)c1ccc2c(c1)OCCO2 [Compound 3f, N-((1R,2R)-1-(2,3-dihydrobenzo[b][1,4]dioxin-6-yl)-1-hydroxy-3-(pyrrolidin-1-yl)propan-2-yl)cinnamamide] | 6.42 | – | 6.41 | 4.8 | 7.09 | – | –
CN(C(=O)CCc1ccccc1)[C@H](CN1CCCC1)[C@H](O)c1ccc2c(c1)OCCO2 [Compound 3j, N-((1R,2R)-1-(2,3-dihydrobenzo[b][1,4]dioxin-6-yl)-1-hydroxy-3-(pyrrolidin-1-yl)propan-2-yl)-N-methyl-3-phenylpropanamide] | 6.80 | – | 5.90 | 21 | 7.23 | – | –
CCCCN1C[C@H](O)[C@@H](O)[C@H](O)[C@H]1CO [NB-DNJ, N-butyldeoxynojirimycin] | – | – | – | – | – | – | reduce mouse body weight

The next lines start with results.

pIC50 [1] | [3H]vinblastine uptake into MDR1-MDCKII cells (MDR1) | SMILES | pIC50 (MDR1-MDCKII cells) | MDR/WT (MDR1-MDCKII cells) | pIC50 (WT-MDCKII cells) | activity in the MDR1-MDCKII line (MDR1-MDCKII cells; in words) | effect on mouse body weight [2]
< 5.70 | – | O=C(Cc1ccccc1)N[C@H](CN1CCCC1)[C@H](O)c1ccc2c(c1)OCCO2 [Compound 3d, N-((1R,2R)-1-(2,3-dihydrobenzo[b][1,4]dioxin-6-yl)-1-hydroxy-3-(pyrrolidin-1-yl)propan-2-yl)-2-phenylacetamido] | – | – | – | – | –
7.05 | – | O=C(N[C@H](CN1CCCC1)[C@H](O)c1ccc2c(c1)OCCO2)C1CC1c1ccccc1 (stereo partly drawn) [Compound 3g, N-((1R,2R)-1-(2,3-dihydrobenzo[b][1,4]dioxin-6-yl)-1-hydroxy-3-(pyrrolidin-1-yl)propan-2-yl)-2-phenylcyclopropanecarboxamide] | 7.11 | 2.9 | 7.56 | – | –
6.97 | dose dependent increase | O=C(N[C@H](CN1CCCC1)[C@H](O)c1ccc2c(c1)OCCO2)C1Cc2ccccc2C1 [Compound 3i, N-((1R,2R)-1-(2,3-dihydrobenzo[b][1,4]dioxin-6-yl)-1-hydroxy-3-(pyrrolidin-1-yl)propan-2-yl)-2,3-dihydro-1H-indene-2-carboxamide] | 5.49 | 21 | 6.82 | loss of activity | –
